Reference: PubChem BioAssay AID1919004 (Molecular Pharmacology Branch, DTP, NCI, 2023)
pIC50: −log10 of the molar value. Values joined by “and” are separate entries in the source; they are usually repeats but may differ in a detail not shown here. Equal values may be shown once. Blank lines part the entries; values can stand above or below the compound they belong to.

System: 883617-216-R-J1-PDC complex spheroids, growth, % test/control
Assay: Anticancer human tumor 883617-216-R-J1-PDC patient-derived bladder carcinoma cell line growth inhibition [AhR]
Settings: for viability, T/C: stronger effect = lower value
Procedure, shortened: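 Spheroids combined tumor cells with HUVEC endothelial cells and human MSCs as stroma. AhR antagonists were paired with standard or investigational drugs, each dosed in half-log steps down from near clinical Cmax, or from 10 microM where Cmax was unknown.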

[1] = curve of first compound, second compound 0.1 µM
[2] = curve of first compound, second compound 0.316 µM
[3] = curve of first compound, second compound 1 µM
[4] = curve of first compound, second compound 3.16 µM
[5] = curve of first compound, second compound 10 µM
[6] = second compound 0.1 µM, first compound 0.00316 µM
[7] = second compound 0.1 µM, first compound 0.01 µM
[8] = second compound 0.1 µM, first compound 0.0316 µM
[9] = second compound 0.1 µM, first compound 0.1 µM
[10] = second compound 0.1 µM, first compound 0.316 µM
[11] = second compound 0.1 µM, first compound 1 µM
[12] = second compound 0.316 µM, first compound 0.00316 µM
[13] = second compound 0.316 µM, first compound 0.01 µM
[14] = second compound 0.316 µM, first compound 0.0316 µM
[15] = second compound 0.316 µM, first compound 0.1 µM
[16] = second compound 0.316 µM, first compound 0.316 µM
[17] = second compound 0.316 µM, first compound 1 µM
[18] = second compound 1 µM, first compound 0.00316 µM
[19] = second compound 1 µM, first compound 0.01 µM
[20] = second compound 1 µM, first compound 0.0316 µM
[21] = second compound 1 µM, first compound 0.1 µM
[22] = second compound 1 µM, first compound 0.316 µM
[23] = second compound 1 µM, first compound 1 µM
[24] = second compound 3.16 µM, first compound 0.00316 µM
[25] = second compound 3.16 µM, first compound 0.01 µM
[26] = second compound 3.16 µM, first compound 0.0316 µM
[27] = second compound 3.16 µM, first compound 0.1 µM
[28] = second compound 3.16 µM, first compound 0.316 µM
[29] = second compound 3.16 µM, first compound 1 µM
[30] = second compound 10 µM, first compound 0.00316 µM
[31] = second compound 10 µM, first compound 0.01 µM
[32] = second compound 10 µM, first compound 0.0316 µM
[33] = second compound 10 µM, first compound 0.1 µM
[34] = second compound 10 µM, first compound 0.316 µM
[35] = second compound 10 µM, first compound 1 µM
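Also: exposure lasted 7 days after dosing on day 3 of spheroid growth.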

pIC50 [1]: < 6.00 | pIC50 [2]: < 6.00 | pIC50 [3]: < 6.00 | pIC50 [4]: < 6.00 | pIC50 [5]: < 6.00
SMILES: Nc1ncn(C2CC(O)C(CO)O2)c(=O)n1 (centres undefined) + CC(CO)NC(=O)c1cc(-c2ccc(Cl)cc2)nn(-c2cnn(C)c2)c1=O
viability, T/C [6]: 101% | viability, T/C [7]: 79.9% | viability, T/C [8]: 76.8% | viability, T/C [9]: 72.5% | viability, T/C [10]: 81.7% | viability, T/C [11]: 82.3% | viability, T/C [12]: 67.2% | viability, T/C [13]: 90.2% | viability, T/C [14]: 101% | viability, T/C [15]: 76.4% | viability, T/C [16]: 71.7% | viability, T/C [17]: 89.7% | viability, T/C [18]: 90.7% | viability, T/C [19]: 60.6% | viability, T/C [20]: 78.8% | viability, T/C [21]: 72.1% | viability, T/C [22]: 75.1% | viability, T/C [23]: 78.8% | viability, T/C [24]: 83.3% | viability, T/C [25]: 61.1% | viability, T/C [26]: 81% | viability, T/C [27]: 76.8% | viability, T/C [28]: 56.8% | viability, T/C [29]: 78.1% | viability, T/C [30]: 59% | viability, T/C [31]: 84.8% | viability, T/C [32]: 115% | viability, T/C [33]: 93.1% | viability, T/C [34]: 75.7% | viability, T/C [35]: 81.2%

pIC50 [1]: < 5.52 | pIC50 [2]: < 5.52 | pIC50 [3]: < 5.52 | pIC50 [4]: < 5.52 | pIC50 [5]: 5.58
SMILES: CCN(c1cc(-c2ccc(CN3CCOCC3)cc2)cc(C(=O)NCc2c(C)cc(C)[nH]c2=O)c1C)C1CCOCC1 + CC(CO)NC(=O)c1cc(-c2ccc(Cl)cc2)nn(-c2cnn(C)c2)c1=O
viability, T/C (second compound 0.1 µM, first compound 0.00949 µM): 94.7% | viability, T/C (second compound 0.1 µM, first compound 0.03 µM): 101% | viability, T/C (second compound 0.1 µM, first compound 0.0949 µM): 75.5% | viability, T/C (second compound 0.1 µM, first compound 0.3 µM): 85.5% | viability, T/C (second compound 0.1 µM, first compound 0.949 µM): 118% | viability, T/C (second compound 0.1 µM, first compound 3 µM): 112% | viability, T/C (second compound 0.316 µM, first compound 0.00949 µM): 83.9% | viability, T/C (second compound 0.316 µM, first compound 0.03 µM): 70.8% | viability, T/C (second compound 0.316 µM, first compound 0.0949 µM): 76.5% | viability, T/C (second compound 0.316 µM, first compound 0.3 µM): 88.5% | viability, T/C (second compound 0.316 µM, first compound 0.949 µM): 77.7% | viability, T/C (second compound 0.316 µM, first compound 3 µM): 80.8% | viability, T/C (second compound 1 µM, first compound 0.00949 µM): 96.1% | viability, T/C (second compound 1 µM, first compound 0.03 µM): 63.2% | viability, T/C (second compound 1 µM, first compound 0.0949 µM): 92.5% | viability, T/C (second compound 1 µM, first compound 0.3 µM): 98.4% | viability, T/C (second compound 1 µM, first compound 0.949 µM): 124% | viability, T/C (second compound 1 µM, first compound 3 µM): 86% | viability, T/C (second compound 3.16 µM, first compound 0.00949 µM): 80.7% | viability, T/C (second compound 3.16 µM, first compound 0.03 µM): 85% | viability, T/C (second compound 3.16 µM, first compound 0.0949 µM): 122% | viability, T/C (second compound 3.16 µM, first compound 0.3 µM): 102% | viability, T/C (second compound 3.16 µM, first compound 0.949 µM): 60.4% | viability, T/C (second compound 3.16 µM, first compound 3 µM): 100% | viability, T/C (second compound 10 µM, first compound 0.00949 µM): 62.8% | viability, T/C (second compound 10 µM, first compound 0.03 µM): 88.9% | viability, T/C (second compound 10 µM, first compound 0.0949 µM): 74.5% | viability, T/C (second compound 10 µM, first compound 0.3 µM): 132% | viability, T/C (second compound 10 µM, first compound 0.949 µM): 98.5% | viability, T/C (second compound 10 µM, first compound 3 µM): 45%

pIC50 [1]: < 5.00 | pIC50 [2]: < 5.00 | pIC50 [3]: < 5.00 | pIC50 [4]: < 5.00 | pIC50 [5]: < 5.00
SMILES: COc1cc(Nc2ncc3c(n2)-c2ccc(Cl)cc2C(c2c(F)cccc2OC)=NC3)ccc1C(=O)O + CC(CO)NC(=O)c1cc(-c2ccc(Cl)cc2)nn(-c2cnn(C)c2)c1=O
viability, T/C [8]: 140% | viability, T/C [9]: 128% | viability, T/C [10]: 77.8% | viability, T/C [11]: 97% | viability, T/C (second compound 0.1 µM, first compound 3.16 µM): 86.6% | viability, T/C (second compound 0.1 µM, first compound 10 µM): 120% | viability, T/C [14]: 128% | viability, T/C [15]: 85% | viability, T/C [16]: 80.5% | viability, T/C [17]: 87% | viability, T/C (second compound 0.316 µM, first compound 3.16 µM): 60.8% | viability, T/C (second compound 0.316 µM, first compound 10 µM): 95.6% | viability, T/C [20]: 124% | viability, T/C [21]: 123% | viability, T/C [22]: 93.3% | viability, T/C [23]: 48.3% | viability, T/C (second compound 1 µM, first compound 3.16 µM): 103% | viability, T/C (second compound 1 µM, first compound 10 µM): 101% | viability, T/C [26]: 77% | viability, T/C [27]: 103% | viability, T/C [28]: 135% | viability, T/C [29]: 105% | viability, T/C (second compound 3.16 µM, first compound 3.16 µM): 70.9% | viability, T/C (second compound 3.16 µM, first compound 10 µM): 70.6% | viability, T/C [32]: 130% | viability, T/C [33]: 71% | viability, T/C [34]: 121% | viability, T/C [35]: 125% | viability, T/C (second compound 10 µM, first compound 3.16 µM): 71.7% | viability, T/C (second compound 10 µM, first compound 10 µM): 88.4%

pIC50 (curve of compound): 6.26 and 6.41 and 6.10
SMILES: O=C(C=Cn1cnc(-c2cc(C(F)(F)F)cc(C(F)(F)F)c2)n1)NNc1cnccn1
viability, T/C (compound 0.00949 µM): 89.8% and 81.2% and 74.5% | viability, T/C (compound 0.03 µM): 88.8% and 78.5% and 89% | viability, T/C (compound 0.0949 µM): 67.4% and 63% and 65.5% | viability, T/C (compound 0.3 µM): 56.7% and 51.7% and 68.9% | viability, T/C (compound 0.949 µM): 45.9% and 42.6% and 45.6% | viability, T/C (compound 3 µM): 28.2% and 30.1% and 35.2%

pIC50 [1]: < 7.00 | pIC50 [2]: < 7.00 | pIC50 [3]: < 7.00 | pIC50 [4]: < 7.00 | pIC50 [5]: < 7.00
SMILES: CC[C@@]1(O)C(=O)OCc2c1cc1n(c2=O)Cc2cc3c(CN(C)C)c(O)ccc3nc2-1 + CC(CO)NC(=O)c1cc(-c2ccc(Cl)cc2)nn(-c2cnn(C)c2)c1=O
viability, T/C (second compound 0.1 µM, first compound 0.000316 µM): 66.5% | viability, T/C (second compound 0.1 µM, first compound 0.001 µM): 93.5% | viability, T/C [6]: 102% | viability, T/C [7]: 52.4% | viability, T/C [8]: 82.2% | viability, T/C [9]: 78.4% | viability, T/C (second compound 0.316 µM, first compound 0.000316 µM): 87.9% | viability, T/C (second compound 0.316 µM, first compound 0.001 µM): 100% | viability, T/C [12]: 103% | viability, T/C [13]: 104% | viability, T/C [14]: 117% | viability, T/C [15]: 118% | viability, T/C (second compound 1 µM, first compound 0.000316 µM): 81.3% | viability, T/C (second compound 1 µM, first compound 0.001 µM): 78% | viability, T/C [18]: 107% | viability, T/C [19]: 58.3% | viability, T/C [20]: 62% | viability, T/C [21]: 97% | viability, T/C (second compound 3.16 µM, first compound 0.000316 µM): 73.7% | viability, T/C (second compound 3.16 µM, first compound 0.001 µM): 104% | viability, T/C [24]: 63.6% | viability, T/C [25]: 81.9% | viability, T/C [26]: 95.5% | viability, T/C [27]: 70.5% | viability, T/C (second compound 10 µM, first compound 0.000316 µM): 88.1% | viability, T/C (second compound 10 µM, first compound 0.001 µM): 95% | viability, T/C [30]: 80.5% | viability, T/C [31]: 66.4% | viability, T/C [32]: 113% | viability, T/C [33]: 112%

pIC50 (curve of compound): 5.02 and < 5.00
SMILES: CC1COCCN1c1cc(C2(S(C)(=N)=O)CC2)nc(-c2ccnc3[nH]ccc23)n1 (centres undefined)
viability, T/C (compound 0.0316 µM): 99.7% and 109% and 114% | viability, T/C (compound 0.1 µM): 97.4% and 97.5% and 101% | viability, T/C (compound 0.316 µM): 106% and 101% and 71.2% | viability, T/C (compound 1 µM): 88.5% and 99.6% and 63.6% | viability, T/C (compound 3.16 µM): 76% and 80.4% and 89.1% | viability, T/C (compound 10 µM): 48.9% and 56.1% and 102%
